Test results reported in US9238034B2, “FN14 antagonists and therapeutic uses thereof” (THE TRANSLATIONAL GENOMICS RESEARCH INSTITUTE, priority 2013, dated 2016).

B1: sTWEAK Y176A: soluble form of TWEAK (amino acids K97-H249) with Y176A substitution, made by IVTT (protein, UniProt O43508 97-249, looked up, variant Y176A)
chain: KGRKTRARRAIAAHYEVHPRPGQDGAQAGVDGTVSGWEEARINSSSPLRYNRQIGEFIVTRAGLYYLYCQVHFDEGKAVALKLDLLVDGVLALRCLEEFSATAASSLGPQLRLCQVSGLLALRPGSSLRIRTLPWAHLKAAPFLTYFGLFQVH
B2: sTWEAK Y176F: soluble form of TWEAK (amino acids K97-H249) with Y176F substitution, made by IVTT (protein, UniProt O43508 97-249, looked up, variant Y176F)
chain: KGRKTRARRAIAAHYEVHPRPGQDGAQAGVDGTVSGWEEARINSSSPLRYNRQIGEFIVTRAGLYYLYCQVHFDEGKAVFLKLDLLVDGVLALRCLEEFSATAASSLGPQLRLCQVSGLLALRPGSSLRIRTLPWAHLKAAPFLTYFGLFQVH

Legend:
[1] = test system: TWEAK-Fn14 signaling pathway; test: TWEAK induced Fn14-NF-κB Luc assay, optimized 384-well HTS format; assay type: cell-based, human; details: 1000 cells/well, 40 ng/mL TWEAK 8 hr, 1 hr pre-incubation
Description: Human embryonic kidney cells (HEK293) express low levels of the Fn14 receptor. We developed a cell-based assay for the Fn14-TWEAK pathway signaling events using HEK293 cells that stably co-expresses high levels of full length Fn14 receptor and a firefly luciferase reporter driven by NF-KB-response elements (Fn14-NF-KB-Luc).
We optimized HEK293 Fn14-NF-KB Luc cell line for HTS by testing TWEAK-stimulated Luc-reporting as a function of growth medium, TWEAK concentration, induction time, assay duration, cell density, and DMSO concentration. For example, we seeded HEK293 Fn14-NF-KB-Luc and control cells (HEK293 NFKB-Luc) into a 96-well plate at a density of 10,000 cells/well, in DMEM or Opti-MEM® (Reduced serum media, protein concentration 15 μg/mL) and incubated at 37 C for 24 or 48 h. We then induced them with various concentrations of TWEAK in buffer or buffer alone (PBS+1 mg/mL BSA) for 5 hr and then measured firefly luciferase levels by chemiluminescence (Bright-Glo™ Promega). […] These initial conditions formed the basis for transfer of the assay into a 384-well format and further optimization with respect to cell seeding density, induction time, and TWEAK concentration.
We achieved the same conclusion from both 96-well and 384-well format that signal-to-background and fold-inductions are increased with increasing TWEAK concentration, peaking between 40-80 ng/mL and decreased at 100 ng/mL (FIGS. 20A and 20B). […] These conditions were further refined with respect to cell density (500-2500 cells per well), induction time (4-8 hr), and two TWEAK concentrations over a series of experiments in 384-well formats.
In the majority of seeding density conditions and two different TWEAK concentrations, the assay performance improved with increasing TWEAK induction time. At 8 hours of TWEAK stimulation, the fold induction (S/B) and Z′ factor was approximately 8-fold and 0.8, respectively, and the average % CV was 6.8%. […]

TNFα induction of NF-κB = test: TNFα induced counterscreen assay, HEK293 NF-κB Luc cells; assay type: cell-based, human
Description: TNFα induction of the HEK293 NF-κB cell line was used as a counterscreen. […] Furthermore, we tested the two control compounds, LY294002 and BAY11-7082, in a drug dose-response format. […] We anticipate that compounds that directly affect Fn14 oligomerization, TWEAK ligation, or signaling proteins specific to the TWEAK-Fn14 signaling pathway that drive NF-κB activation will show minimal activity in the TNFα counterscreen assay. In order to eliminate the false positive hits from the pilot screen, we further performed the counterscreen by testing 35 “positives” from the Prestwick collection against HEK293 NF-KB-Luc control cell lines induced by TNFα. From this experiment we eliminated 28 compounds that inhibited luciferase expression after TNFα induction of HEK293 NF-KB Luc cells. Thus, after counterscreen only 7 compounds appeared to be specific inhibitors to the TWEAK-Fn14 signaling pathway. […] Overall, through our pilot primary screen and counterscreen, our hit rate approached 0.6% for this targeted collection. We expect a random collection to yield a lower hit-rate, which will be further reduced through the chemoinformatic filtering for luciferase false positive artifacts. Furthermore, secondary assays will be critical as cytotoxic false positives appeared to be about 80% from our pilot screen. […]

Fn14 = target: T1, Fn14 (Homo sapiens, UniProt Q9NP84); test: Surface Plasmon Resonance assay, Fn14-Fc sensor surface; assay type: binding; details: SPR, 0 to 50 μM
T1 construct: the human Fc fragment-tagged Fn14 extracellular domain (R&D Systems) was captured
T1 sequence (Q9NP84 28-80 limits assumed): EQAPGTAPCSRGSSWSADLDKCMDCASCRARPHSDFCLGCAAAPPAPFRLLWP
Protocol: (§1) Surface Plasmon Resonance (SPR) Assay. The binding affinity of at least one of the compounds (e.g., L524-0366) to TWEAK and Fn14-Fx was determined using a BIAcore T100 optical biosensor (GE Healthcare) at 25 degrees Celsius at the Arizona Proteomics Consortium. Recombinant human TWEAK (20 μg/mL in 10 mM HEPES pH 7.4, 150 mM NaCl, 3 mM EDTA, 0.05% Tween 20) or recombinant human Fn14-Fc (20 μg/mL in 10 mM NaOAc pH 4.0) were covalently coupled to separate flow cells on a BIAcore CM5 sensor chip using standard amine coupling chemistry as per manufacturer's protocol. Final immobilization levels were 6000 Response Units (RU) for TWEAK and 13,000 RU for FN14-Fc. The first flow path of the chip was treated with the same coupling and blocking reagents without protein and was used as a reference for each binding cycle. Functionality of the TWEAK and the Fn14-Fc sensor surfaces were verified by injecting Fn14-Fc and TWEAK over them respectively. Serial dilutions of L524-0366 or cycloheximide (control) from 0 to 50 μM were made in running buffer (10 mM HEPES pH 7.4, 150 mM NaCl, 3 mM EDTA, 1% DMSO). […] Equilibrium dissociation constants for the small molecules were calculated by fitting the double reference subtracted data to Req=((CRmax)/(KD+C))+RI, where RI is the bulk refractive index contribution.

TWEAK = target: T2, TWEAK (Homo sapiens, UniProt O43508); test: Surface Plasmon Resonance assay, TWEAK sensor surface; assay type: binding; details: SPR, 0 to 50 μM
T2 sequence (O43508 94-249 limits assumed): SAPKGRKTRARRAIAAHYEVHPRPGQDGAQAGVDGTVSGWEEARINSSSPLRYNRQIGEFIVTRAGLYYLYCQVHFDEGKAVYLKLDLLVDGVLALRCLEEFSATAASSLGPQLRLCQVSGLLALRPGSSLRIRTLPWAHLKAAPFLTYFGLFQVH
Protocol: as §1

Fn14 signaling [2] = test: NF-κB luciferase reporter assay with sTWEAK variants, HEK293 NF-κB luciferase cells; assay type: cell-based, human; details: 5 hr
Protocol: (§2) NF-κB luciferase reporter Assay. The capacity of sTWEAK or sTWEAK variants to activate Fn14 signaling was evaluated using engineered reporter cell lines that express luciferase upon NF-κB activation. Two reporter cell lines were utilized for these experiments. HEK293 NF-κB luciferase (courtesy of Dr. Jeff Winkles) were generated by transfecting HEK293 cells with a reporter plasmid containing 5 copies of a consensus NF-κB binding site upstream of a minimal CMV promoter driving expression of firefly luciferase. The second cell line, designated HEK293 NF-κB luciferase Fn14 FL, was generated by stably transfecting the HEK293 NF-κB luciferase cell line with full length Fn14. To assay the binding of sTWEAK or sTWEAK variants to Fn14, reporter cells were seeded in tissue culture treated white 96-well plates at 1×10^4 cells/well in 80 μL Opti-MEM media (Invitrogen) and incubated for 48 hr at 37° C. After 48 hr incubation, 20 μL of 5× purified recombinant TWEAK (Peprotech Inc.; 150 ng/mL) in 1 mg/mL BSA in PBS was added to each well and incubated for 5 hr at 37° C. as positive control. Similarly, equivalent amounts of sTWEAK or sTWEAK variant prepared via IVTTas determined using ELISA assay described above was added in 20 μl. […] At the end of 5 hr incubation, the luminescent signal was determined using Bright-Glo assay kit (Promega, Madison, Wis.) according to the manufacturer's instructions.

Fn14 signaling [3] = test: NF-κB luciferase reporter assay with sTWEAK variants, HEK293 NF-κB luciferase cells overexpressing full length Fn14; assay type: cell-based, human; details: HEK293 NF-κB luciferase cells stably overexpressing full length Fn14, 5 hr
Protocol: as §2

Molecule | effect on TWEAK induced Fn14-NF-κB Luc signal [1] | luciferase expression less than cells stimulated with sTWEAK (Fn14 signaling [2]) | induction of luciferase expression less relative to cells stimulated with sTWEAK (Fn14 signaling [3]) | other results
Cc1ccc(S(=O)(=O)/C=C/C#N)cc1 [BAY11-7082] | dose-dependent manner | – | – | drug inhibition of TNFα activation, Fn14 versus control cell lines (TNFα induction of NF-κB; drug dose-response format, 40 ng/ml TNFα): no significant difference
CC(C(=O)O)c1ccc(N2Cc3ccccc3C2=O)cc1 (stereo not shown) [Indoprofen] | drug sensitivity in a dose-dependent manner | – | – | effect in NF-KB Luc cells induced with TNFα (TNFα induction of NF-κB; 10 μM, TNFα 40 ng/mL for 8 hours): no significant effect
C[C@@H]1C[C@@H]([C@H](O)CC2CC(=O)NC(=O)C2)C(=O)[C@@H](C)C1 [cycloheximide, reference compound] | – | – | – | binding to Fn14 (Fn14): did not show significant binding; binding to TWEAK (TWEAK): did not show significant binding
B1 | – | 87% | 98% | –
B2 | – | 100% | 98% | –
